Data published in article PMC6892925, “Development of Novel Silyl Cyanocinnamic Acid Derivatives as Metabolic Plasticity Inhibitors for Cancer Treatment” (Scientific Reports, 2019).

Key:
MDA-MB-231 cells = assay: Western blot analysis of cell damage and death markers; type: cell-based, human
Protocol: (§1) Owing to the enhanced antiproliferative effects induced by test compound 2a when compared to CHC, western blot analysis of cell damage and death markers was performed. The master transcription factor p53 regulates the expression of numerous genes involved in cancer progression and is responsible for balancing proliferation and apoptosis. In this regard, we evaluated the effects of compound treatment on p53 expression. Literature reports indicate that MDA-MB-231 and WiDr cells express distinct homozygous mutant forms of p53 that promote an aggressive malignant phenotype with resistance to apoptosis[36],[37]. […] Further, PARP1 is involved in the DNA repair pathway through sensing DNA-strand breaks and recruiting repair enzymes. Importantly, PARP1 is a target of caspase cleavage under apoptotic conditions, and the appearance of the PARP1 cleavage product is a widely used indicator of cellular apoptosis. […] Additionally, DNA damage may be a downstream effect of apoptotic nuclease activity or an increase in reactive oxygen species (ROS) from damaged mitochondria; as illustrated in microscopy and seahorse experiments. Histone 2AX phosphorylation (γH2AX) resulting from DNA single- and double-strand breaks is a widely employed marker for DNA damage. In this regard, we investigated the effect of 2a on DNA damage marker γH2AX (phosphorylated Ser139, histone H2AX) with a phospho-specific antibody. […] Due to the potential of ROS leading to DNA damage and H2AX phosphorylation, we investigated the ability of antioxidant N-acetyl cysteine (NAC) to inhibit DNA damage of compound 2a as evidenced by H2AX phosphorylation in the highly oxidative cell line WiDr (Fig. 4A).
(§2) 50,000 WiDr or MDA-MB-231 cells were seeded in 100 mm dishes and were incubated for 48 hours. Cells were then treated with test compounds for 24 hours, washed twice with 1X PBS, solubilized in 200 μL SDS boiling buffer (5% w/v SDS, 10% v/v glycerol, and 60 mM Tris pH 6.8), and sonicated. The resulting cell lysate was then assayed for protein using the Pierce BCA protocol. A volume of test sample containing 10 μg protein was loaded on SDS PAGE gel for electrophoresis according to manufacturer’s instructions. Proteins were transferred from the gel to nitrocellulose membrane according to the manufacturer’s instructions. Membranes were blocked for 1 hr at 35 °C using 10% (w/v) non-fat milk in PBST and were exposed to primary antibody. PARP1 (rabbit polyclonal IgG, Origene, TA321555), p53 (rabbit polyclonal IgG, Santa Cruz, sc50329), and γ-H2AX (Upstate 05-636, 1:2500) were detected and visualized using HRP chemiluminescence. For relative quantitation, β-actin (mouse monoclonal IgG C4, Millipore, MAB1501, 1:10,000) and GAPDH (mouse monoclonal IgG, Santa Cruz, sc47724, 1:100) were detected and measured as a control protein.

WiDr cells = assay: as above; type: cell-based, human; settings: WiDr
Protocol: as §1, §2

Question: Which PARP1 cleavage (MDA-MB-231 cells; 100 μM, 24 hours) does the source give for `CC(C)(C)[Si](Oc1ccc(/C=C(\C#N)C(=O)O)cc1)(c1ccccc1)c1ccccc1` [2a] here?
Answer: induced PARP1 cleavage

Question: What about the “expression of γH2AX (DNA damage marker)” value (MDA-MB-231 cells; 100 μM, 24 hours) of the same molecule?
Answer: substantial increases

Question: And the p53 expression (MDA-MB-231 cells; 24 hours treatment)?
Answer: increase in p53 expression

Question: And the PARP1 cleavage (WiDr cells; 100 μM, 24 hours)?
Answer: induced PARP1 cleavage

Question: What about the “expression of γH2AX (DNA damage marker)” value (WiDr cells; 100 μM, 24 hours) of the same molecule?
Answer: substantial increases

Question: What about the p53 expression (WiDr cells; 24 hours treatment) of the same molecule?
Answer: not in WiDr
